Assay results reported in publication PMC2064394 (The Journal of Cell Biology, 2006).

Target: T1, recombinant C. elegans kinesin-II (heterotrimeric kinesin-2) (Caenorhabditis elegans, UniProt Q19633+Q965T6)
T1 sequence (Q19633 1-782): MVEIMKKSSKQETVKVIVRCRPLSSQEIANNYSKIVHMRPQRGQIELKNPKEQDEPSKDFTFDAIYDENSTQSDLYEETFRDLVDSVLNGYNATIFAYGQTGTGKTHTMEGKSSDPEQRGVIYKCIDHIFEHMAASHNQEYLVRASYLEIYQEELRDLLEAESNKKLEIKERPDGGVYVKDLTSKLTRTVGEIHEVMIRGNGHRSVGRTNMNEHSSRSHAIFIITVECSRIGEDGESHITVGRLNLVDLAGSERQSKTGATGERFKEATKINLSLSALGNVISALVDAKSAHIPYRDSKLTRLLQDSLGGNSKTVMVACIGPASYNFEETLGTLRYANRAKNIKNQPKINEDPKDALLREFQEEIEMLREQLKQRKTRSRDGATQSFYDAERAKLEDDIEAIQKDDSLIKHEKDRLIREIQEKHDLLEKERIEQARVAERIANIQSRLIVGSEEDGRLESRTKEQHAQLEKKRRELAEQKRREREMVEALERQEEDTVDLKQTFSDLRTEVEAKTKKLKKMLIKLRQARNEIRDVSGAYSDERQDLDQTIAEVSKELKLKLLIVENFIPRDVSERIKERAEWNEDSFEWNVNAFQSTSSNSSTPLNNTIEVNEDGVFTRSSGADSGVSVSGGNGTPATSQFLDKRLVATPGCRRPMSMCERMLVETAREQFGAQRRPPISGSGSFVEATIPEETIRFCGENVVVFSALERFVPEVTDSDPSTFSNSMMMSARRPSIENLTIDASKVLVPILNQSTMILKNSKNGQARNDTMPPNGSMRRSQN
T1 sequence (Q965T6 1-646): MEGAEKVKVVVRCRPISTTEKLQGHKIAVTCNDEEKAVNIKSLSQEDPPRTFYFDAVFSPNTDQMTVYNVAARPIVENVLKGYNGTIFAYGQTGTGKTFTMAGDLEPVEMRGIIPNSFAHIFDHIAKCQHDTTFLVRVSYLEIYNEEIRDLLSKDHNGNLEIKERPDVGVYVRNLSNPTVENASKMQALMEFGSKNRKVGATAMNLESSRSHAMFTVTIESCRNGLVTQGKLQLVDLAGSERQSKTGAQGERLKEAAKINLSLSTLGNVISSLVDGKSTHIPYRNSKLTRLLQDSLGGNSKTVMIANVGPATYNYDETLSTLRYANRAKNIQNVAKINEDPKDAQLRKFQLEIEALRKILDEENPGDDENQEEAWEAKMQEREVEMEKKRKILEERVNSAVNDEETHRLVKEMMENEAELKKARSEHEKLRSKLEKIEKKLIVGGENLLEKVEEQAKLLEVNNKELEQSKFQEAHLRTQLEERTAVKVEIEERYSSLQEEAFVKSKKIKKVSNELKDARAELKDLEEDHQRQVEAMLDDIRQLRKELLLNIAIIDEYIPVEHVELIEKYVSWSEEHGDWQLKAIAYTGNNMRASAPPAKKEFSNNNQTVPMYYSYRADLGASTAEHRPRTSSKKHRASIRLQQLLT
T1 sequence (G5EEE6 1-713 partner): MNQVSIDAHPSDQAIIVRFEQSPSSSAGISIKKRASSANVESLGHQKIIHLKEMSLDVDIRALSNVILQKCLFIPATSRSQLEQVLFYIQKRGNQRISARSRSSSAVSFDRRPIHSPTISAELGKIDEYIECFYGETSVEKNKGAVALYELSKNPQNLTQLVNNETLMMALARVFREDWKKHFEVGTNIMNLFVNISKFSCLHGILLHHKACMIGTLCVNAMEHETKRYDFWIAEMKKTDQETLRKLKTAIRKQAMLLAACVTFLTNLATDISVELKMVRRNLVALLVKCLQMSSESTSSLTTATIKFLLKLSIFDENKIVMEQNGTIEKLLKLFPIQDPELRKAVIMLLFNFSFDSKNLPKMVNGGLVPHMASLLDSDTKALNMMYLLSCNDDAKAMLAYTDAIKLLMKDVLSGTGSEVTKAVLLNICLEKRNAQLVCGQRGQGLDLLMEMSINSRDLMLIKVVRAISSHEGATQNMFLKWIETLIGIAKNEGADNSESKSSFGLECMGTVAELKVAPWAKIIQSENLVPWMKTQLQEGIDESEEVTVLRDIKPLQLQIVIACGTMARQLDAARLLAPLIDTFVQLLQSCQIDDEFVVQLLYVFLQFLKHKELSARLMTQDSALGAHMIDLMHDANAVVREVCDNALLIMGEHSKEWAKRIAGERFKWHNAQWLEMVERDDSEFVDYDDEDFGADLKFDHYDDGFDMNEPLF
Test: microtubule gliding velocity assay
Type: biochemical
Details: read-out: Recombinant C. elegans kinesin-II; Mg-ATP; microtubules; 21°C

Km: 280 ± 50 µM
Compound: Nc1ncnc2c1ncn2[C@@H]1O[C@H](COP(=O)(O)OP(=O)(O)OP(=O)(O)O)[C@@H](O)[C@H]1O [Mg-ATP]
